Test results reported in PMC5620609 (Pharmaceuticals, 2017).
Where two headings read alike, the source gives them in different places.

Legend:
SW-620 = experiment: NCI 60 cell line panel: SW-620; assay type: cell-based, human; conditions: Colon cancer, TP53 null/mutant
Text: (§1) Details of the NCI 60 One Dose Screen are well known and available online.

in vivo = conditions: nude, mouse, iv
Method: Three mice were placed in a dose group on the first day of treatment (Day 1). […] Animals were observed daily for mortality and moribundity. Body weights were measured daily starting on day 1.

MALME-3M = experiment: NCI 60 cell line panel: MALME-3M; assay type: cell-based, human; conditions: Melanoma, TP53 wild type
Text: as §1

KM12 = experiment: NCI 60 cell line panel: KM12; assay type: cell-based, human; conditions: Colon cancer, TP53 null/mutant
Text: as §1

EKVX = experiment: NCI 60 cell line panel: EKVX; assay type: cell-based, human; conditions: NSCL, TP53 null/mutant
Text: as §1

[1] = test system: HL-60 human leukemia (TP53 null) xenograft; assay type: in vivo
Method: (§2) Drugs were administered IV for 3 consecutive days a week for 3 weeks. HL-60 is a human leukemia cell line (TP53 null) that is part of the NCI 60 cell line panel and can be grown in nude mice.
(§3) First, 10^7 tumor cells from culture in Matrigel™ of HL-60 human leukemia or LoVo colon cancer were implanted subcutaneously in the flank of 1.75-fold the number of NCr-nu/nu mice required for the study. Study initiation began when the required number of mice had tumors of approximately: • 100 to 250 mm^3 (target group mean tumor volume of approximately 175 mm^3) for the first set of studies. • 14 to 63 mm^3 (target group mean tumor weight of approximately 30 mm^3) for the second set of studies.
(§4) Mice with tumors in the proper volume range were arbitrarily assigned to groups. Mice received test article on 3 consecutive days per week for 3 weeks. Mice were observed daily for mortality and moribundity with weights and the tumor measurements taken twice weekly. Tumor volume was determined using the formula for an ellipsoid sphere: Length × Width^2/2 = Volume (mm^3). The experiments were scheduled to last for 60 days from the day of tumor implant. Any animal whose weight decreased more than 30% from the weight on the first day of treatment or whose tumor reached 4000 mm^3 in volume, ulcerated or sloughed off, or was moribund was euthanized prior to study termination.

[2] = test system: LoVo colon cancer (TP53 WT) xenograft; assay type: in vivo
Method: as §2, §3, §4

HS 578T = experiment: NCI 60 cell line panel: HS 578T; assay type: cell-based, human; conditions: Breast cancer, TP53 null/mutant
Text: as §1

DNMT1 = DNMT1 (Homo sapiens, UniProt P26358); experiment: Western blot for DNMT1, Kasumi-1 cells; assay type: cell-based; parameters: cytoplasmic and nuclear protein extracts from cells; endogenous in cells; host or cells: Kasumi-1; conditions: 0.1 and 0.2 µM, 6 days after exposure
Method: Cells were co-stained with Annexin-V and PI on day 2 and analyzed by flow cytometry.
Approximately 100 µg of cytoplasmic and nuclear protein extracts from cells, together with molecular weight markers, were subjected to SDS-PAGE on 4–12% gradient gels (Invitrogen, Carlsbad, CA, USA) followed by transfer to polyvinylidene fluoride membranes (Invitrogen). Blots were probed using antibodies for DNMT1 (Abcam ab16632).

M14 = experiment: NCI 60 cell line panel: M14; assay type: cell-based, human; conditions: Melanoma, TP53 null/mutant
Text: as §1

NCI/ADR-RES = experiment: NCI 60 cell line panel: NCI/ADR-RES; assay type: cell-based, human; conditions: Ovarian cancer, TP53 null/mutant
Text: as §1

total DNMT = experiment: Total DNMT inhibition, colorimetric assay in HCT-116 cells; assay type: cell-based, human; conditions: 10 µM, 24 h
Method: Total DNMT activity was measured in the colon cancer cell line HCT-116. The assay was performed using the EpiQuick^TM DNA Methyltransferase Activity/Inhibition Assay Kit (Epigentek, Brooklyn, NY, USA). […] Assays were performed three times in triplicate.

HCC-2998 = experiment: NCI 60 cell line panel: HCC-2998; assay type: cell-based, human; conditions: Colon cancer, TP53 null/mutant
Text: as §1

MOLT-4 = experiment: NCI 60 cell line panel: MOLT-4; assay type: cell-based, human; conditions: Leukemia, TP53 null/mutant
Text: as §1

[3] = test system: TP53 WT colon cancer cell line Ls174T; experiment: In vitro growth inhibition (CellTiter-Glo), Ls174T; assay type: cell-based; conditions: Homo sapiens, 72 h exposure
Method: Further testing was performed in colon cancer cell lines.
Cells were grown in an appropriate medium for the cell line of interest; 96 well plates of each cell line were seeded with 5000 cells per well and left overnight. Drug exposed cells were incubated at 37 °C for 72 h. At the end of the 72 h exposure period, plates were removed for the CellTiter-Glo® assay. Luminescence was recorded on a Synergy 4.0. Assays were performed in triplicate.

HT29 = experiment: NCI 60 cell line panel: HT29; assay type: cell-based, human; conditions: Colon cancer, TP53 null/mutant
Text: as §1

SN12C = experiment: NCI 60 cell line panel: SN12C; assay type: cell-based, human; conditions: Renal cancer, TP53 null/mutant
Text: as §1

[4] = Hydrolysis of the 5-azacytosine base; assay type: physicochemical; conditions: data not shown
MCF7 = experiment: NCI 60 cell line panel: MCF7; assay type: cell-based, human; conditions: Breast cancer, TP53 wild type
Text: as §1

SR = experiment: NCI 60 cell line panel: SR; assay type: cell-based, human; conditions: Leukemia, TP53 wild type
Text: as §1

IGROV-1 = experiment: NCI 60 cell line panel: IGROV-1; assay type: cell-based, human; conditions: Ovarian cancer, TP53 null/mutant
Text: as §1

SF-268 = experiment: NCI 60 cell line panel: SF-268; assay type: cell-based, human; conditions: CNS cancer, TP53 null/mutant
Text: as §1

ACHN = experiment: NCI 60 cell line panel: ACHN; assay type: cell-based, human; conditions: Renal cancer, TP53 wild type
Text: as §1

RPMI-8226 = experiment: NCI 60 cell line panel: RPMI-8226; assay type: cell-based, human; conditions: Leukemia, TP53 null/mutant
Text: as §1

HL-60 = experiment: NCI 60 cell line panel: HL-60; assay type: cell-based, human; conditions: Leukemia, TP53 null/mutant
Text: as §1

SNB-75 = experiment: NCI 60 cell line panel: SNB-75; assay type: cell-based, human; conditions: CNS cancer, TP53 null/mutant
Text: as §1

OVCAR-4 = experiment: NCI 60 cell line panel: OVCAR-4; assay type: cell-based, human; conditions: Ovarian cancer, TP53 null/mutant
Text: as §1

K-562 = experiment: NCI 60 cell line panel: K-562; assay type: cell-based, human; conditions: Leukemia, TP53 null/mutant
Text: as §1

OVCAR-3 = experiment: NCI 60 cell line panel: OVCAR-3; assay type: cell-based, human; conditions: Ovarian cancer, TP53 null/mutant
Text: as §1

TK-10 = experiment: NCI 60 cell line panel: TK-10; assay type: cell-based, human; conditions: Renal cancer, TP53 null/mutant
Text: as §1

Chain of DNMT1 (P26358 whole entry): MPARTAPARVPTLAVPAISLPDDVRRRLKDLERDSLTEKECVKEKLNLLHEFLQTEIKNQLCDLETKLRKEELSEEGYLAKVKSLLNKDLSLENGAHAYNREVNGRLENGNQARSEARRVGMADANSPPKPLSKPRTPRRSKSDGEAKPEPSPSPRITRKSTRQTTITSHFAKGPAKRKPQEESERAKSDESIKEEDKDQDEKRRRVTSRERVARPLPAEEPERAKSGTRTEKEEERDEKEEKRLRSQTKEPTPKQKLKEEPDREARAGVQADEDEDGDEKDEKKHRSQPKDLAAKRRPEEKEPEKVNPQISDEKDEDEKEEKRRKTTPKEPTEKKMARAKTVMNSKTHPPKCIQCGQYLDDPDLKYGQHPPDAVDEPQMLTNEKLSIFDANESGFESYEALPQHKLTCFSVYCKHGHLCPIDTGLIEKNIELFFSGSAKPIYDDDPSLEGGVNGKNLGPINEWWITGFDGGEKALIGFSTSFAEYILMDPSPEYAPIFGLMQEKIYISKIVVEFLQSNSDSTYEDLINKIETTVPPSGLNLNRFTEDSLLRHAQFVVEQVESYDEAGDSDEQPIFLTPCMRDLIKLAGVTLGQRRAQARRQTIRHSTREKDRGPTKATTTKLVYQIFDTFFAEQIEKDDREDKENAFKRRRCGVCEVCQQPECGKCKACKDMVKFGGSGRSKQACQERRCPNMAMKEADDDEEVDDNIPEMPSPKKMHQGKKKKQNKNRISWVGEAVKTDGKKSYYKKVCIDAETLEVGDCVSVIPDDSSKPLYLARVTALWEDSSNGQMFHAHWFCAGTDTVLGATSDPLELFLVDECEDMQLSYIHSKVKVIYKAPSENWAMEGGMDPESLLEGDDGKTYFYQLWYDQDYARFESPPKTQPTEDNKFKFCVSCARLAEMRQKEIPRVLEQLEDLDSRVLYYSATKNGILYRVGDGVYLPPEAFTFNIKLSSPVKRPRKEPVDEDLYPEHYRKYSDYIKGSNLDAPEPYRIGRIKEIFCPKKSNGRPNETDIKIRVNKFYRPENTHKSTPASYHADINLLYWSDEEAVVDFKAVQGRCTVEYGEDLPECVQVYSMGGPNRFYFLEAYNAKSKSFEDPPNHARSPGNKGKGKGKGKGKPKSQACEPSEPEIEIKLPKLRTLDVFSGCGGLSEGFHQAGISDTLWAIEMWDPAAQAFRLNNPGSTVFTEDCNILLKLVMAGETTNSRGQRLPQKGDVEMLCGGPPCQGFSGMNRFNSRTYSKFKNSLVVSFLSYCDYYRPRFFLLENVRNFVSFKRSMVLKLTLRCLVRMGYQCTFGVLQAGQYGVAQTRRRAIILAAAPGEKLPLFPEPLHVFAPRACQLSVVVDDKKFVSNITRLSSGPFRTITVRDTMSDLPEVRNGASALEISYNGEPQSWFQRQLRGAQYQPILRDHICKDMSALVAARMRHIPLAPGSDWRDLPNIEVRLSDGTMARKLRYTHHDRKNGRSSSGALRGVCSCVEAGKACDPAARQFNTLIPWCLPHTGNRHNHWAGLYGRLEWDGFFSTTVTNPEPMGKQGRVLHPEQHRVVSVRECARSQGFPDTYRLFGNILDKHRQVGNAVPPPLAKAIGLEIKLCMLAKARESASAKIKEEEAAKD

Compound: Nc1ncn([C@@H]2O[C@H](CO)[C@@H](O)C2(F)F)c(=O)n1 [NUC013, 5-aza-2′,2′-difluroro deoxycytidine]
- Growth (%) at 10 µM (SW-620): 51.21%
- MTD at 3 weeks (in vivo): > 120 mg/kg
- Growth (%) at 10 µM (MALME-3M): 67.90%
- Growth (%) at 10 µM (KM12): 61.18%
- Growth (%) at 10 µM (EKVX): 86.06%
- median survival (MS) ([1]; HL-60 first study, NUC013 5.8 mg/kg IV, saline MS = 25 days): 28.5 days
- mice died or euthanized for moribundity (out of 10) ([1]; HL-60 first study, NUC013 equimolar dose (5.8 mg/kg) IV): none
- median survival (MS) ([1]; HL-60 second study, NUC013 20 mg/kg IV, saline MS = 26.5 days): 32 days
- tumor volume lower than saline control (maximum) ([1]; HL-60 second study, NUC013 20 mg/kg IV, study days 21 and 25): 47.8%
- median survival (MS) ([2]; LoVo first study, NUC013 5.8 mg/kg IV): 60 days
- mean tumor volume lower compared to controls ([2]; LoVo first study, NUC013 equimolar dose (5.8 mg/kg) IV, study day 27): 24.3%
- median survival (MS) ([2]; LoVo second study, NUC013 20 mg/kg IV): undefined
- mean tumor volume lower compared to controls ([2]; LoVo second study, NUC013 20 mg/kg IV, study day 30): 50.9%
- median survival (MS) ([2]; LoVo second study, NUC013 40 mg/kg IV): undefined
- mean tumor volume lower compared to controls ([2]; LoVo second study, NUC013 40 mg/kg IV, study day 30): 53.7%
- Growth (%) at 10 µM (HS 578T): 90.37%
- DNMT1 inhibition by western blot (DNMT1): weaker than decitabine
- Growth (%) at 10 µM (M14): 15.55%
- Growth (%) at 10 µM (NCI/ADR-RES): 42.13%
- inhibition of total DNMT (total DNMT): 48.5%
- Growth (%) at 10 µM (HCC-2998): 60.44%
- Growth (%) at 10 µM (MOLT-4): 35.63%
- GI50 [3]: 1300 nM
- Growth (%) at 10 µM (HT29): 70.09%
- Growth (%) at 10 µM (SN12C): 51.65%
- hydrolysis at the 6-position of the cytosine ring [4]: susceptible to hydrolysis
- Growth (%) at 10 µM (MCF7): 20.74%
- Growth (%) at 10 µM (SR): 14.99%
- Growth (%) at 10 µM (IGROV-1): 56.77%
- Growth (%) at 10 µM (SF-268): 65.39%
- Growth (%) at 10 µM (ACHN): 7.28%
- Growth (%) at 10 µM (RPMI-8226): 39.24%
- Growth (%) at 10 µM (HL-60): 25.23%
- Growth (%) at 10 µM (SNB-75): 64.95%
- Growth (%) at 10 µM (OVCAR-4): 94.88%
- Growth (%) at 10 µM (K-562): 65.66%
- Growth (%) at 10 µM (OVCAR-3): 70.56%
- Growth (%) at 10 µM (TK-10): 91.13%
